How the values were obtained:
Type in all cases: in vivo
Bromus japonicus = test: Pot experiment, soil treatment, control of Bromus japonicus (fresh weight, Colby); conditions: mixtures: both AIs at these rates, after 35 days
Description: (§1) Referring to an article of Colby, S. R. i.e., Calculation of the synergistic and antagonistic response of herbicide combinations.
(§2) E0-E value is calculated to evaluate the combined effect of pyroxasulfone and the second herbicide selected from the group consisting of fluorochloridone, aclonifen, diflufenican and terbutryn on the selected weeds.
(§3) In this Example, the herbicidal activity of treatments by a mixture of pyroxasulfone and the second herbicide selected from the group consisting of fluorochloridone, aclonifen, diflufenican and terbutryn for controlling Aegilops tauschii was investigated by a pot experiment. This Example was carried out in accordance with “NY/T 1155.4-2006 Guidelines for Indoor Bioassay Tests of Pesticides, Herbicides Part 4: Activity Determination Tests, Stem and Leaf Spray Method”. • Source of the agrochemicals tested were: • Pyroxasulfone: pyroxasulfone (850g/Kg, WG) from Adama Agan LTD. • Fluorochloridone: fluorochloridone (250 g/L, EC) from Adama Agan LTD. • Aclonifen: aclonifen (600 g/L, SC) from Adama Agan LTD. • Diflufenican: diflufenican (50g/Kg, WP) from Bayer. • Terbutryn: terbutryn (50g/Kg, SC) from Zhejiang Zhongshan Chemical Industry Group Co., Ltd. • Cultivation of test materials: The test soil was formed by mixing the 20 cm layer loam on the ground surface and the culture medium in a ratio of 3:1 as cultivation soil. Weeds were cultivated in an artificial climate chamber. The daytime and nighttime temperatures were set at 22° C. and 19° C., respectively, and the illumination was set at daytime: dark time 12h: 12h.
(§4) A certain amount of Aegilops tauschii seeds were sown in a plastic pot with a diameter of 9 cm, covering with 1-2 mm soil, and putting them in an enamel dish filled with water. The bottom infiltration method was used to water them, the agrochemicals tested in this Example were applied on the second day after sowing Aegilops tauschii seeds.
(§5) Spraying treatment: ASS-4 automatic control spraying system with a fan-shaped nozzle was used indoors to spray the agrochemicals, the running speed was adjusted based on nozzle pressure, flow rate, etc. to spray 50 mL of liquid of agrochemicals on the actual spray area of 1.1 m2 (equivalent to 30 liters per mu), arranging the plastic pots to be processed on the spraying table evenly, and spraying evenly. The spraying pressure was 0.35 MPa, and the flow rate of the fan-shaped nozzle was 800 mL/min, spraying in order from low dosage to high dosage. Each treatment was repeated 3 times. After spraying, the plastic pots were dried for one day, placed in an artificial climate chamber, and watered regularly to keep moist.
(§6) Weed investigation method and time: after applying the agrochemicals, the symptoms of weed damage (such as growth inhibition, chlorosis, deformity, etc.) were recorded in detail. After 35 days, the fresh weight of aerial part of the weeds in each treatment was weighed, and the measured fresh weight inhibition rate and the measured fresh weight survival rate for each treatment were calculated according to the following equations: […]
Example 3 was conducted in substantially the same way as Example 1, except that Bromus japonicus was used instead of Aegilops tauschii.

Aegilops tauschii = test: Pot experiment, soil treatment, control of Aegilops tauschii (fresh weight, Colby); conditions: mixtures: both AIs at these rates, after 35 days
Excerpt: as §1
E0 is the theoretical fresh weight survival rate for the mixture of pyroxasulfone and the second herbicide selected from the group consisting of fluorochloridone, aclonifen, diflufenican and terbutryn;
X is the measured fresh weight survival rate for pyroxasulfone used alone at the same dosage as that in the mixture;
Y is the measured fresh weight survival rate for the second herbicide selected from the group consisting of fluorochloridone, aclonifen, diflufenican and terbutryn used alone at the same dosage as that in the mixture;
E is the measured fresh weight survival rate for the mixture of pyroxasulfone and the second herbicide selected from the group consisting of fluorochloridone, aclonifen, diflufenican and terbutryn.
as §2, §3, §4, §5, §6

Lithospermum arvense = test: Pot experiment, soil treatment, control of Lithospermum arvense (fresh weight, Colby)
Description: as §1, §2, §3, §4, §5, §6
Example 5 was conducted substantially the same way as Example 1, except that Lithospermum arvense was used instead of Aegilops tauschii.

Solanum nigrum = test: Pot experiment (glass greenhouse), soil treatment, control of Solanum nigrum (fresh weight, Colby)
Description: as §1, §2, §3, §4, §5, §6
Example 6 was substantially conducted in the same as Example 1, except that (1) Solanum nigrum was used instead of Aegilops tauschii, (2) in “Cultivation of test materials” part, Solanum nigrum was cultivated in a glass greenhouse instead of an artificial climate chamber at a temperature of 25 to 33° C. with a natural illumination, and (3) in “Spraying treatment” part, after spraying and drying, the plastic pots were placed in a glass greenhouse instead of an artificial climate chamber.

Galium aparine = test: Pot experiment, soil treatment, control of Galium aparine (fresh weight, Colby)
Description: as §1, §2, §3, §4, §5, §6
Example 4 was conducted substantially the same way as Example 1, except that Galium aparine was used instead of Aegilops tauschii.

Lolium multiflorum Lamk = test: Pot experiment, soil treatment, control of Lolium multiflorum Lamk (fresh weight, Colby); conditions: mixtures: both AIs at these rates, after 35 days
Description: as §1, §2, §3, §4, §5, §6
Example 2 was conducted in substantially the same way as Example 1, except that Lolium multiflorum Lamk was used instead of Aegilops tauschii.

[1] = g ai/ha: pyroxasulfone 11.25, fluorochloridone 31.25, aclonifen 150, diflufenican 14.0625, terbutryn 140.625
[2] = g ai/ha: pyroxasulfone 22.5, fluorochloridone 62.5, aclonifen 300, diflufenican 28.125, terbutryn 281.25
[3] = g ai/ha: pyroxasulfone 45, fluorochloridone 125, aclonifen 600, diflufenican 56.25, terbutryn 562.5
[4] = g ai/ha: pyroxasulfone 90, fluorochloridone 250, aclonifen 1200, diflufenican 112.5, terbutryn 1125
[5] = g ai/ha: pyroxasulfone 180, fluorochloridone 500, aclonifen 2400, diflufenican 225, terbutryn 2250
[6] = g ai/ha: pyroxasulfone 360, fluorochloridone 1000, aclonifen 4800, diflufenican 450, terbutryn 4500

Question: Which results are given for `Nc1c([N+](=O)[O-])ccc(Oc2ccccc2)c1Cl` [aclonifen, 2-chloro-6-nitrio-3-phenoxyaniline]?
Answer: Measured fresh weight inhibition rate (%) (Bromus japonicus; [1]): 45.4%; Measured fresh weight survival rate (%) - E (Bromus japonicus; [1]): 54.6%; Measured fresh weight inhibition rate (%) (Bromus japonicus; [2]): 86.6%; Measured fresh weight survival rate (%) - E (Bromus japonicus; [2]): 13.4%; Measured fresh weight inhibition rate (%) (Bromus japonicus; [3]): 100.0%; Measured fresh weight survival rate (%) - E (Bromus japonicus; [3]): 0.0%; Measured fresh weight inhibition rate (%) (Bromus japonicus; [4]): 100.0%; Measured fresh weight survival rate (%) - E (Bromus japonicus; [4]): 0.0%; Measured fresh weight inhibition rate (%) (Bromus japonicus; [5]): 100.0%; Measured fresh weight survival rate (%) - E (Bromus japonicus; [5]): 0.0%; Measured fresh weight inhibition rate (%) (Aegilops tauschii; [1]): 6.1%; Measured fresh weight survival rate (%) - E (Aegilops tauschii; [1]): 93.9%; Measured fresh weight inhibition rate (%) (Aegilops tauschii; [2]): 25.0%; Measured fresh weight survival rate (%) - E (Aegilops tauschii; [2]): 75.0%; Measured fresh weight inhibition rate (%) (Aegilops tauschii; [3]): 26.2%; Measured fresh weight survival rate (%) - E (Aegilops tauschii; [3]): 73.8%; Measured fresh weight inhibition rate (%) (Aegilops tauschii; [4]): 70.1%; Measured fresh weight survival rate (%) - E (Aegilops tauschii; [4]): 29.9%; Measured fresh weight inhibition rate (%) (Aegilops tauschii; [5]): 74.4%; Measured fresh weight survival rate (%) - E (Aegilops tauschii; [5]): 25.6%; Measured fresh weight inhibition rate (%) (Aegilops tauschii; [6]): 97.6%; Measured fresh weight survival rate (%) - E (Aegilops tauschii; [6]): 2.4%; Measured fresh weight survival rate (%) - E (Lithospermum arvense; 150 g ai/ha): 43.5%; Measured fresh weight survival rate (%) - E (Lithospermum arvense; 300 g ai/ha): 13.0%; Measured fresh weight survival rate (%) - E (Lithospermum arvense; 600 g ai/ha): 1.4%; Measured fresh weight survival rate (%) - E (Lithospermum arvense; 1200 g ai/ha): 0.0%; Measured fresh weight survival rate (%) - E (Lithospermum arvense; 2400 g ai/ha): 0.0%; inhibition at 150 g/ha (Lithospermum arvense; Buglossoides arvensis, soil, 150 g ai/ha, read-out: Measured fresh weight inhibition rate (%)): 56.5%; inhibition at 300 g/ha (Lithospermum arvense; Buglossoides arvensis, soil, 300 g ai/ha, read-out: Measured fresh weight inhibition rate (%)): 87%; inhibition at 600 g/ha (Lithospermum arvense; Buglossoides arvensis, soil, 600 g ai/ha, read-out: Measured fresh weight inhibition rate (%)): 98.6%; inhibition at 1200 g/ha (Lithospermum arvense; Buglossoides arvensis, soil, 1200 g ai/ha, read-out: Measured fresh weight inhibition rate (%)): 100%; inhibition at 2400 g/ha (Lithospermum arvense; Buglossoides arvensis, soil, 2400 g ai/ha, read-out: Measured fresh weight inhibition rate (%)): 100%; Measured fresh weight survival rate (%) - E (Solanum nigrum; 150 g ai/ha): 87.1%; Measured fresh weight survival rate (%) - E (Solanum nigrum; 300 g ai/ha): 82.7%; Measured fresh weight survival rate (%) - E (Solanum nigrum; 600 g ai/ha): 69.4%; Measured fresh weight survival rate (%) - E (Solanum nigrum; 1200 g ai/ha): 56.9%; Measured fresh weight survival rate (%) - E (Solanum nigrum; 2400 g ai/ha): 26.3%; inhibition at 150 g/ha (Solanum nigrum; Solanum nigrum, soil, 150 g ai/ha, read-out: Measured fresh weight inhibition rate (%)): 12.9%; inhibition at 300 g/ha (Solanum nigrum; Solanum nigrum, soil, 300 g ai/ha, read-out: Measured fresh weight inhibition rate (%)): 17.3%; inhibition at 600 g/ha (Solanum nigrum; Solanum nigrum, soil, 600 g ai/ha, read-out: Measured fresh weight inhibition rate (%)): 30.6%; inhibition at 1200 g/ha (Solanum nigrum; Solanum nigrum, soil, 1200 g ai/ha, read-out: Measured fresh weight inhibition rate (%)): 43.1%; inhibition at 2400 g/ha (Solanum nigrum; Solanum nigrum, soil, 2400 g ai/ha, read-out: Measured fresh weight inhibition rate (%)): 73.7%; Measured fresh weight survival rate (%) - E (Galium aparine; 150 g ai/ha): 79.5%; Measured fresh weight survival rate (%) - E (Galium aparine; 300 g ai/ha): 63.0%; Measured fresh weight survival rate (%) - E (Galium aparine; 600 g ai/ha): 9.6%; Measured fresh weight survival rate (%) - E (Galium aparine; 1200 g ai/ha): 0.0%; Measured fresh weight survival rate (%) - E (Galium aparine; 2400 g ai/ha): 0.0%; inhibition at 150 g/ha (Galium aparine; Galium aparine, soil, 150 g ai/ha, read-out: Measured fresh weight inhibition rate (%)): 20.5%; inhibition at 300 g/ha (Galium aparine; Galium aparine, soil, 300 g ai/ha, read-out: Measured fresh weight inhibition rate (%)): 37%; inhibition at 600 g/ha (Galium aparine; Galium aparine, soil, 600 g ai/ha, read-out: Measured fresh weight inhibition rate (%)): 90.4%; inhibition at 1200 g/ha (Galium aparine; Galium aparine, soil, 1200 g ai/ha, read-out: Measured fresh weight inhibition rate (%)): 100%; inhibition at 2400 g/ha (Galium aparine; Galium aparine, soil, 2400 g ai/ha, read-out: Measured fresh weight inhibition rate (%)): 100%; Measured fresh weight inhibition rate (%) (Lolium multiflorum Lamk; [1]): 89.1%; Measured fresh weight survival rate (%) - E (Lolium multiflorum Lamk; [1]): 10.9%; Measured fresh weight inhibition rate (%) (Lolium multiflorum Lamk; [2]): 96.4%; Measured fresh weight survival rate (%) - E (Lolium multiflorum Lamk; [2]): 3.6%; Measured fresh weight inhibition rate (%) (Lolium multiflorum Lamk; [3]): 99.5%; Measured fresh weight survival rate (%) - E (Lolium multiflorum Lamk; [3]): 0.5%; Measured fresh weight inhibition rate (%) (Lolium multiflorum Lamk; [4]): 100.0%; Measured fresh weight survival rate (%) - E (Lolium multiflorum Lamk; [4]): 0.0%; Measured fresh weight inhibition rate (%) (Lolium multiflorum Lamk; [5]): 100.0%; Measured fresh weight survival rate (%) - E (Lolium multiflorum Lamk; [5]): 0.0%; Measured fresh weight inhibition rate (%) (Lolium multiflorum Lamk; [6]): 100.0%; Measured fresh weight survival rate (%) - E (Lolium multiflorum Lamk; [6]): 0.0%
